Measurements as given in patent publication US4724229A, “Arg-arg-arg-vasopressin antagonists” (Smithkline Beckman Corporation, priority 1986, dated 1988).
Numbered stars: 1 amine (or outer) side, 2 acyl side, 3 side chain; on linkers, the order of the positions; unused ones are H or OH. Bridge positions count the residues as written; N and C are the ends. Square brackets hold non-standard residues; d marks the D form. Peptide text beside a SMILES is read from it. X1 = O=C(CC1(S[*:2])CCCCC1)[*:1]

Tests used:
[1] = biological target: T1, receptor in the porcine renal medullary membrane (vasopressin V2 -receptors) (Sus scrofa, UniProt P32307); experiment: [3H]LVP binding, porcine renal medullary membrane (Kbind); details: competition with [3H]LVP binding, Kb = IC50/(1 + L/KD)
T1 construct: in the porcine renal medullary membrane; from tissue; host or cells: porcine renal medullary membranes
Method: V2 -antagonistic activity toward the natural anti-diuretic hormone (anti-ADH activity) is determined, in vitro, in the medullary tissue of hog or human kidneys and, in vivo, in the hydropenic rat. The in vitro assay procedures for vasopressin stimulated adenylate cyclase activation or vasopressin binding activity are described by F. Stassen et al., J. Pharmacology and Experimental Therapeutics, 223, 50-54 (1982). V1 -antagonistic activity is determined by procedures using the rat thoracic aorta tissue and plasma membranes of rat liver. These procedures are described in the noted Stassen publication and in a publication at the 1st International Conference on Diuretics, Miami, Fla., March (1984). Oxytocin antagonism is determined as described by W. Sawyer et al., Endocrinology, 106 81 (1979). | ^a Kbind is a measure of the affinity of a ligand for a receptor | in the porcine renal medullary membrane. It is derived from the equation | for competitive inhibition Kb = IC50 /(1 + L/KD) where | IC50 is the concentration of the ligand for 50% inhibition of [^ | H]LVP binding, L is the concentration of the ligand, and KD is the | dissociation constant of [^3 H]LVP.

[2] = biological target: T2, LVP stimulated adenylate cyclase of pig kidney medullary membrane (Sus scrofa, UniProt P32307); experiment: Inhibition of LVP stimulated adenylate cyclase of pig kidney medullary membrane; type: biochemical
T2 construct: stimulated adenylate cyclase of pig kidney medullary membrane; from tissue; host or cells: pig kidney medullary membranes
Method: (§1) V2 -antagonistic activity toward the natural anti-diuretic hormone (anti-ADH activity) is determined, in vitro, in the medullary tissue of hog or human kidneys and, in vivo, in the hydropenic rat. The in vitro assay procedures for vasopressin stimulated adenylate cyclase activation or vasopressin binding activity are described by F. Stassen et al., J. Pharmacology and Experimental Therapeutics, 223, 50-54 (1982). V1 -antagonistic activity is determined by procedures using the rat thoracic aorta tissue and plasma membranes of rat liver. These procedures are described in the noted Stassen publication and in a publication at the 1st International Conference on Diuretics, Miami, Fla., March (1984). Oxytocin antagonism is determined as described by W. Sawyer et al., Endocrinology, 106 81 (1979). | ^b Ki is the inhibition constant measured for inhibition of LVP | stimulated adenylate cyclase of pig kidney medullary membrane, and is | derived from the equation for competitive inhibition as described.

[3] = biological target: T3, receptor in the human liver membrane tissue (V1) (Homo sapiens, UniProt P37288); experiment: Binding to human liver membranes V1 (Kbind)
T3 construct: in the human liver membrane tissue; from tissue; host or cells: human liver membranes
Method: as §1, with “(1979).” for “(1979). | ^b Ki is the inhibition constant measured for inhibition of LVP | stimulated adenylate cyclase of pig kidney medullary membrane, and is | derived from the equation for competitive inhibition as described.”
^d Kbind is a measure of the affinity of a ligand for a receptor
in the human liver membrane tissue. It is derived from the equation in […]

T1 sequence (P32307 whole entry): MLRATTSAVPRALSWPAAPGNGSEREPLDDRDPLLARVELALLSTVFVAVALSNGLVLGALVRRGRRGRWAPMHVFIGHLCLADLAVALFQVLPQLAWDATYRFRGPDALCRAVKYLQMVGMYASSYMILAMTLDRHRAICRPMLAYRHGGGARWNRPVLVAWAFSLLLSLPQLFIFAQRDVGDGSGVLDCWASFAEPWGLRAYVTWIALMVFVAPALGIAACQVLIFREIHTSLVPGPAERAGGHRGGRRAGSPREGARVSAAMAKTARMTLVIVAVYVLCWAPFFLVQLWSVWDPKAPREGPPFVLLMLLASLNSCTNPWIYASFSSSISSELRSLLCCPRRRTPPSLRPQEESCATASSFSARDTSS
T3 sequence (P37288 whole entry): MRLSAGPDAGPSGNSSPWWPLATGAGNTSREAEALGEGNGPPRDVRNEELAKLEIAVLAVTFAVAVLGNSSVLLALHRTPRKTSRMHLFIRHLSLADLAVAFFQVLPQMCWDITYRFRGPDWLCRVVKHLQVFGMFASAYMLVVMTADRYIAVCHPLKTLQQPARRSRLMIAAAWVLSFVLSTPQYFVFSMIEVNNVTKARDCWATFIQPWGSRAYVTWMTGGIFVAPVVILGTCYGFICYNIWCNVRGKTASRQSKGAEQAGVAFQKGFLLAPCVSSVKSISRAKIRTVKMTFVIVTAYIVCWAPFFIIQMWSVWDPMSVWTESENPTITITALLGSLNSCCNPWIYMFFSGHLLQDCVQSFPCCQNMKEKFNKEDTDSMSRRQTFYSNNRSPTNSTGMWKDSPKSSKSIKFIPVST
T2 sequence (P32307 whole entry): as the sequence (P32307 whole entry) above

| Ki [1] | Ki [2] | Ki [3] | SMILES |
| --- | --- | --- | --- |
| 2.6 nM | 1.54 nM | 4.41 nM | CCOc1ccc(C[C@H]2NC(=O)CC3(CCCCC3)SSC[C@@H](C(=O)N[C@@H](CCCNC(=N)N)C(=O)N[C@@H](CCCNC(=N)N)C(=O)N[C@@H](CCCNC(=N)N)C(N)=O)NC(=O)[C@H](CC(N)=O)NC(=O)[C@H](C(C)C)NC(=O)[C@H](Cc3ccccc3)NC2=O)cc1 [No. 1, [1-(β-mercapto-β,β-cyclopentamethylenepropionic acid)-2-(O-ethyl)-D-tyrosine-4-valine-7-arginine-8-arginine-9-arginine]-vasopressin] ([dY](Et)FVNCRRR-NH2; linker N-5 via X1) |
| 9.1 nM | – | 1.3 nM | CCOc1ccc(C[C@H]2NC(=O)CC3(CCCCC3)SSC[C@@H](C(=O)N[C@@H](CCCNC(=N)N)C(N)=O)NC(=O)[C@H](CC(N)=O)NC(=O)[C@H](C(C)C)NC(=O)[C@H](Cc3ccccc3)NC2=O)cc1 [compound 2] ([dY](Et)FVNCR-NH2; linker N-5 via X1) |
| 3.4 nM | 1.7 nM | 1.3 nM | CCOc1ccc(C[C@H]2NC(=O)CC3(CCCCC3)SSC[C@@H](C(=O)N[C@@H](CCCNC(=N)N)C(=O)N[C@@H](CCCNC(=N)N)C(N)=O)NC(=O)[C@H](CC(N)=O)NC(=O)[C@H](C(C)C)NC(=O)[C@H](Cc3ccccc3)NC2=O)cc1 [compound 3] ([dY](Et)FVNCRR-NH2; linker N-5 via X1) |
